Results published in paper PMC11001709, “Anti-toxoplasma activity and DNA-binding of copper(II) and zinc(II) coordination compounds with 5-nitroimidazole-based ligands” (Journal of Biological Inorganic Chemistry, 2023).
“And” between values parts separate entries of the source, which are not always exact repeats. Identical values can stand only once.

How the values were obtained:
[1] = system: RH tachyzoites of Toxoplasma gondii; assay: Viability of extracellular tachyzoites, Sytox Green exclusion test; type: cell-based; settings: 2.5-40 µM, 1 h, PBS
Procedure: RH tachyzoites of Toxoplasma gondii were extracted in PBS solution at pH 7.4 from intraperitoneal fluid of infected CD1 mice on the third day of infection and centrifuged for ten minutes at 260g. Purified parasites were used within 4 h after their isolation.
The viability of the parasites was determined from staining with Sytox Green® fluorescent dye exclusion test. Purified tachyzoites (1 × 10^6) were incubated for one hour at room temperature with PBS solutions of the coordination compounds or the free ligands at concentrations of 40, 20, 10, 5, and 2.5 µM (0.1% DMSO), in a volume final of 1 mL. After the incubation time, the samples were centrifuged for 10 min at 250g, the medium was removed and 20 µL of Sytox Green® was added after 15 min of incubation for differentiate dead parasites in a Neubauer chamber. The assays were performed in triplicate. The half maximal inhibitory concentration (IC50) was calculated by Boltzmann regression analysis and expressed as mean ± standard error of three replicates. Based on the results the tachyzoites were incubated under the same conditions with the coordination compounds [Cu(onz)2Cl2] and [Cu(onz)2Br2] at their respective IC50 values, Sytox Green® was then added, and they were observed by fluorescence microscopy. Sulfadiazine was used as positive control.
Viability assays were performed against tachyzoites of Toxoplasma gondii. The RH strain was used to evaluate the effect of different concentrations (namely, 2.5, 5, 10, 20 and 40 µM) of the coordination compounds and the free 5-nitroimidazole against the tachyzoites. The evaluation were performed in PBS buffer (pH 7.4) with Sytox Green® exclusion test, which allows differentiating dead from live tachyzoites, since the intact cell membrane of alive ones is not stained.

pBR322 plasmid DNA = assay: Agarose gel electrophoresis, DNA cleavage; type: biochemical
Procedure: Electrophoresis assays were performed in 1.5% agarose gel and 1× TBE buffer using the DNA plasmid pBR322. The plasmid (15 µM base pairs) was incubated with 10 and 50 μM concentrations of the coordination compounds for 1 h at 37 °C in presence and absence of ascorbic acid (50 μM) as reducing agent and hydrogen peroxide (500 µM) as ROS generator in a final volume of 20 μL. The DNA-cleaving compound [Cu(phen)2(H2O)](NO3)2 was used as reference. The samples were loaded into the gel with 4 μL of a loading buffer (30% glycerol, 5 mM xylene cyanol), and electrophoresis was performed in 1× TBE at 100 V for 1 h in a Bio-Rad horizontal tank. Subsequently, the gel was stained with SYBR™ Safe overnight and images were acquired with a Gel Doc EZ Imager instrument (Bio-Rad).
Distinct forms of pBR322 plasmid DNA are commonly observed by gel electrophoresis due to the conformational changes that present distinct electrophoretic mobility: (1) supercoiled DNA (Form I) that migrates faster on the gel, (2) circular nicked (Form II), obtained from a one-strand scission, has a slower migration through the gel and (3) linear form (Form III) is generated when both strands are cleaved and migrates between forms I and II [54]. The interaction of the free ligands and their copper(II) and zinc(II) coordination compounds with pBR322 was investigated in presence of H2Asc (50 μM) as reducing agent and H2O2 (500 μM) as ROS generator. Solutions of 10 and 50 µM of the coordination compounds were incubated with the DNA at 37 °C for 1 h.

ct-DNA [2] = assay: Circular dichroism of ct-DNA; type: binding, calf; settings: [DNA]b = 50 µM, [complex]/[DNA] 0-2, 1 h 37 °C
Procedure: (§1) For the UV–Vis, fluorescence and circular dichroism assays the concentration of ct-DNA was determined on a Varian Cary 100 Scan spectrophotometer from the absorption at 260 nm and the corresponding molar absorptivity of 6600 M^−1 cm^−1 (nucleobase concentration). The stock solutions of the coordination compounds and the free ligands were prepared in cacodylate/NaCl buffer (1 mM cacodylic acid and 20 mM sodium chloride) at pH 7.25. The final samples contained a DMSO concentration of 0.2%.
Circular dichroism (CD) spectra were recorded using a JASCO-815 spectropolarimeter, equipped with xenon-arc lamp of 450 W. The sample compartment was air-purged with N2 before use. For the measurements, a quartz cuvette with an optical path of 5 mm was used. A solution of 25 µM (in base pairs) of ct-DNA in cacodylate/NaCl buffer was incubated for 1 h at 37 °C with increasing amounts of coordination compounds (0–50 µM). The CD spectra were recorded at room temperature.
The interaction of small molecules with DNA can modify these CD signals depending on the type of binding. Intercalative interactions increase the intensity of the signals, as the result of an increase of the stability of the B conformation, whereas groove binding or covalent interactions tend to decrease the intensity of these signals, which are moreover displaced. The CD spectra for both ligands and their copper(II) and zinc(II) complexes were obtained at constant concentration of ct-DNA, increasing the complex concentration up to two equivalents ([complex]/[DNA] ratios of 0, 0.2, 0.4, 1, 2) with respect to the nucleobases concentration ([DNA]b = 50 µM).

[3] = Distribution coefficient LogD7.4, shake-flask 1-octanol/MOPS buffer; type: physicochemical; settings: 25 °C; for LogD7.4: octanol/water (MOPS buffer 10^–2 M), 3 h
Procedure: Solutions between 100 and 10 µM of the free ligands (cenz and onz) and the coordination compounds 3–10 were prepared in a MOPS buffer pH 7.4 as the aqueous phase and in 1-octanol as the organic phase. The absorption at 320 nm and 310 nm was determined for the aqueous and organic phase respectively by electronic spectroscopy (UV–Vis). Through a linear regression (concentration vs. absorption) the molar extinction coefficient of each compound in both phases was determined (Table 3). The lipophilicity was calculated in the 1-octanol/water system from the shake flask method using Eq. 1 [39]:1 […] where, Co is the final concentration in the organic phase and Cw is the final concentration in the aqueous phase (MOPS buffer at 10^–2 M pH 7.4). Both phases were presaturated with 50 µM solutions of the free ligands or 500 µM of each coordination compound and their UV spectrum was recorded. Both phases were combined and kept stirring for 3 h at 25 °C and in the absence of light. Subsequently, the mixture was centrifuged at 400g and the concentration in both phases was determined by UV–Vis spectroscopy using the Beer-Lambert law. The assays were performed in triplicate.
The T gondii parasite is an apicomplex organism; it requires a host cell to live, so it is important that the drugs used against the parasite have easy access to the cell. The lipophilicity of a compound is an important physicochemical property to determine its ability to permeate the biological membrane through passive diffusion; which usually is measured from the distribution coefficient logD7.4 = log(Co/Cw), in n-octanol/water. The shake-flask method was used to determine the LogD7.4 values from the molar extinction coefficients of the coordination compounds and the ligands in the two solvents (Table 3).

ct-DNA [4] = assay: Competitive displacement of Hoechst 33258 from DNA (fluorescence); type: binding, calf; settings: Hoechst 33258 1.9 µM, [DNA]b = 30 µM, compound 0-50 µM, 1 h
Procedure: as §1
(§2) Emission intensity of the dyes DNA-intercalator ethidium bromide, EB (λexc = 514 nm) and the minor-groove binder Hoechst 33,258 (λexc = 350 nm) was measured on iHR320 HORIBA JOBIN YVON spectrofluorometer. The samples contained 15 µM (in base pairs) of ct-DNA and 75 µM of EB […] in cacodylate/NaCl buffer. The respective dye was incubated for 30 min with ct-DNA to allow its binding to the biomolecule. Subsequently, increasing amounts of coordination compounds (0–50 µM) were added up to a final volume of 2 mL, and the samples were incubated for 1 h at 37 °C. The fluorescence spectra of all samples were recorded at room temperature. The affinity of the compounds for ct-DNA compared to EB was evaluated through the Stern–Volmer quenching constant Ksv, from Eq. 3:3 I0/I=1+Ksvcompound where I0 and I are the emission intensities in absence and the presence of the compound, respectively.
Competitive binding assays were carried out with Hoechst 33,258. This dye binds to B-DNA, especially those with an AT-rich sequence giving a fluorescent signal at 458 nm when excited at 350 nm. As for to the EB assays, DNA (30 µM) was incubated for 30 min with Hoechst 33,258 (1.9 µM) and increasing amounts of the coordination compounds were subsequently added. In all cases, fluorescence quenching was observed (Fig. 9). As previously, the Ksv constants were determined (Fig. 9c and Table 4). The copper(II) compounds show Ksv values in the […] range (Table 4), indicating a groove binding behavior. For the zinc(II) compounds, the Ksv values are two orders of magnitude lower indicating weaker interactions, must likely of electrostatic nature.

ct-DNA [5] = assay: Competitive displacement of ethidium bromide from DNA (fluorescence); type: binding, calf; settings: EB 75 µM, [DNA]b = 30 µM, compound 0-50 µM, 1 h
Procedure: as §1, §2
With the aim to corroborate the binding mode of the coordination compounds with DNA competitive displacement assays were carried out by florescence spectroscopy. The fluorescence of ethidium bromide (EB) increases when it intercalates between DNA base pairs, forming an EB-DNA adduct. Competitive binding assays will lead to a decrease of the fluorescence intensity (λexc = 514 nm; λem = 610 nm) if the interacting molecule is capable of displacing EB from the DNA helix. Solutions containing constant concentrations of DNA (30 µM) and EB (75 µM) were incubated for 30 min. Then the coordination compounds to be tested were added in a concentration in the range of 0–50 µM (corresponding to [complex]/[DNA] ratios between = 0 and 3.3), and fluorescence spectra were recorded after 1 h of incubation.

[6] = compound 50 (mM in the source), + H2Asc
[7] = compound 50 (mM in the source), + H2Asc + H2O2
[8] = compound 50 (mM in the source), + H2O2
[9] = compound 50 (mM in the source), no additive
[10] = compound 10 (mM in the source), + H2Asc
[11] = compound 10 (mM in the source), + H2Asc + H2O2
[12] = compound 10 (mM in the source), + H2O2
[13] = compound 10 (mM in the source), no additive

SMILES	%Damage (pBR322 plasmid DNA; [6]) [%]	%Supercoiled (pBR322 plasmid DNA; [6]) [%]	%Damage (pBR322 plasmid DNA; [7]) [%]	%Damage (pBR322 plasmid DNA; [8]) [%]	%Nicked (pBR322 plasmid DNA; [8]) [%]	%Supercoiled (pBR322 plasmid DNA; [8]) [%]	%Damage (pBR322 plasmid DNA; [9]) [%]	%Supercoiled (pBR322 plasmid DNA; [9]) [%]	effect on CD spectrum of ct-DNA (bands at 275 and 245 nm) (ct-DNA [2])	Hoechst 33258 Ksv (ct-DNA [4]) [M⁻¹]	%Damage (pBR322 plasmid DNA; [10])	%Nicked (pBR322 plasmid DNA; [10]) [%]	%Supercoiled (pBR322 plasmid DNA; [10]) [%]	%Damage (pBR322 plasmid DNA; [11]) [%]	%Damage (pBR322 plasmid DNA; [12])	%Nicked (pBR322 plasmid DNA; [12]) [%]	%Supercoiled (pBR322 plasmid DNA; [12])	%Damage (pBR322 plasmid DNA; [13]) [%]	%Nicked (pBR322 plasmid DNA; [13]) [%]	%Supercoiled (pBR322 plasmid DNA; [13])	other results
Cc1ncc([N+](=O)[O-])n1CCCl [cenz, 1-(2-chloroethyl)-2-methyl-5-nitro-1H-imidazole]	8.80	91.20	9.70	7.20	5.90	92.80	7.50	92.50	did not affect the DNA structure												activity against T. gondii [1]: did not show activity; %Nicked (pBR322 plasmid DNA; [7]): 4.00%; %Supercoiled (pBR322 plasmid DNA; [7]): 90.30%; DNA cleavage (in words) (pBR322 plasmid DNA; with and without H2Asc / H2O2): did not provoke any significant DNA cleavage; logD at 3 h ([3]; 1-octanol/MOPS buffer, pH 7.4, octanol/water (MOPS buffer 10^–2 M)): 0.72
Cc1n(CC(O)CCl)c([N+](=O)[O-])c[n+]1[Zn-2]([Br])([Br])[n+]1cc([N+](=O)[O-])n(CC(O)CCl)c1C (stereo not shown) [[Zn(onz)2Br2]]	98.2	1.80	100.00	44.80	29.10	55.20	11.9	88.10	spectra changes are minor	48000	87.3%	81.80	12.70	100.00	14.30%	4.70	85.70%	3.5	2.60	96.50%	%Nicked (pBR322 plasmid DNA; [6]): 98.80%; %Nicked (pBR322 plasmid DNA; [9]): 0.40%; Ethidium bromide Ksv (ct-DNA [5]): 2600 M⁻¹; LogD7.4 [3]: 0.95
Cc1ncc([N+](=O)[O-])n1CCCl.Cc1ncc([N+](=O)[O-])n1CCCl.[Cl][Zn][Cl] [[Zn(cenz)2Cl2]]	80.60	19.40	100.00	97.60	81.50	2.40	18.40	81.60	spectra changes are minor	61000	17.10%	2.90	82.90	90.90	7.30%	6.50	92.70%	20.80	2.50	79.20%	%Nicked (pBR322 plasmid DNA; [11]): 2.10%; %Supercoiled (pBR322 plasmid DNA; [11]): 9.10%; %Nicked (pBR322 plasmid DNA; [6]): 40.60%; %Nicked (pBR322 plasmid DNA; [9]): 2.20%; LogD7.4 [3]: 0.86
O.O=[N+]([O-])[O-].O=[N+]([O-])[O-].[Cu+2].c1cnc2c(c1)ccc1cccnc12.c1cnc2c(c1)ccc1cccnc12 [Cu(phen), reference compound]											100.00% and 94.90%	64.80	5.10	100.00	80.70% and 79.00%		19.30% and 21.00%			81.70% and 93.20%	
